Laboratory results as given in paper PMC7024175, “In Depth Analysis of Kinase Cross Screening Data to Identify CAMKK2 Inhibitory Scaffolds” (Molecules, 2020).

Columns and labels:
BRD4 = conditions: cited from earlier work
CAMKK2 [1] = biological target: T1, CAMKK2 (Homo sapiens, UniProt Q96RR4); assay: CAMKK2 enzyme assay (radiometric, CaMKKtide); assay type: biochemical; conditions: read-out: PoC (activity remaining); for remaining activity at 0.1 µM: 0.1 µM inhibitor; for remaining activity at 1 µM: 1.0 µM inhibitor
T1 construct: made in house
T1 sequence (Q96RR4 whole entry): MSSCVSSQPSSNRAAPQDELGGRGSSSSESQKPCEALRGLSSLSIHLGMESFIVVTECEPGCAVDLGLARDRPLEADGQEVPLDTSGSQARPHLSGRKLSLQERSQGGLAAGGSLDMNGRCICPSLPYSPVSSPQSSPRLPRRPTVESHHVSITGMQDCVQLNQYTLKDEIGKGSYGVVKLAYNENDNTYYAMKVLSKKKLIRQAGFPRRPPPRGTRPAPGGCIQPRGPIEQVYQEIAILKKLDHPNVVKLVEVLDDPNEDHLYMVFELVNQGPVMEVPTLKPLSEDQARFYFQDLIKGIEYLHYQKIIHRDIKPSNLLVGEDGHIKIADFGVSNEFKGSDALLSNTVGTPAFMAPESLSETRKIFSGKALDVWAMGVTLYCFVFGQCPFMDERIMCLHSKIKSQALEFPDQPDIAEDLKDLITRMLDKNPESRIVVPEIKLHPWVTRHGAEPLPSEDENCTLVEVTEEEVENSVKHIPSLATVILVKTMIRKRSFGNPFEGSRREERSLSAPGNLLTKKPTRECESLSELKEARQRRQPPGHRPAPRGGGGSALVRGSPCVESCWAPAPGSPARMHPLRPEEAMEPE
Experimental: CAMKK2 activity was determined by measuring the transfer of radiolabeled phosphate from [γ-^32P]-ATP to a synthetic peptide substrate (CaMKKtide) as previously described [49]. Briefly, purified recombinant CAMKK2 (100 pM) was incubated in assay buffer (50 mM HEPES [pH 7.4], 1 mM DTT, 0.02% [v/v] Brij-35) containing 200 μM CaMKKtide (Genscript), 100 μM CaCl2, 1 μM CaM (Sigma-Aldrich, Castle Hill, NSW, Australia) 200 μM [γ-^32P]-ATP (Perkin Elmer, Boston, MA, USA), 5 mM MgCl2 (Sigma-Aldrich, Castle Hill, NSW, Australia) and various concentrations of inhibitors (0–1 μM) in a standard 30 μl assay for 10 min at 30 °C. Reactions were terminated by spotting 15 μl onto P81 phosphocellulose paper (GE Lifesciences, Paramatta, NSW, Australia) and washing extensively in 1% phosphoric acid (Sigma-Aldrich, Castle Hill, NSW, Australia). Radioactivity was quantified by liquid scintillation counting.

CAMKK2 [2] = conditions: activity reported in the literature; cited from earlier work
[3] = system: aryl hydrocarbon receptor; design: method as in PMID 18755850; conditions: cited from earlier work
casein kinase 2 (CK2) = biological target: casein kinase 2 (CK2); design: method as in earlier work; conditions: ref 80 (Bain et al.); cited from earlier work
[4] = cited from earlier work
mice = conditions: mouse, in vivo; cited from earlier work
[5] = HLM, mass spectrometry analysis; cited from earlier work

Compound: CC[C@@H]1C(=O)N(C)c2cnc(Nc3ccc(C(=O)NC4CCN(C)CC4)cc3OC)nc2N1C1CCCC1 [BI2536]
- BRD4 inhibition (BRD4): potent inhibitor of BRD4

Compound: O=C(O)c1ccc(-c2c[nH]c3ncc(-c4ccccc4)cc23)cc1C1CCCC1 [GSK650394]
- remaining activity at 0.1 µM (CAMKK2 [1]): 4%
- remaining activity at 1 µM (CAMKK2 [1]): 3%
- pIC50 CAMKK2 reported in the literature (CAMKK2 [2]): 9.2

Compound: O=C(O)c1ccc2c3c1cccc3c(=O)n1c3ccccc3nc21 [STO 609, 7-oxo-7H-benzimidazo[2,1-a]benz[de]isoquinoline-3-carboxylic acid]
- aryl hydrocarbon receptor binding/activation [3]: binds and activates the aryl hydrocarbon receptor
- IC50 (casein kinase 2 (CK2)): 190 nM
- aqueous solubility [4]: poor aqueous solubility
- remaining activity at 0.01 µM (CAMKK2 [1]; 0.01 µM inhibitor): 63%
- remaining activity at 0.1 µM (CAMKK2 [1]): 56%
- remaining activity at 1 µM (CAMKK2 [1]): 21%
- tolerability, hepatic and renal toxicity (mice): well tolerated in mice without significant hepatic or renal toxicity
- metabolism on exposure to human liver microsomes [5]: metabolized to three mono-hydroxylated byproducts, principally by CYP1A2
